The text below walks through data of patent publication US9662327B2 (AGIOS PHARMACEUTICALS, INC, priority 2011, dated 2017).

Sequence of IDH1 R132H (O75874 whole entry R132H): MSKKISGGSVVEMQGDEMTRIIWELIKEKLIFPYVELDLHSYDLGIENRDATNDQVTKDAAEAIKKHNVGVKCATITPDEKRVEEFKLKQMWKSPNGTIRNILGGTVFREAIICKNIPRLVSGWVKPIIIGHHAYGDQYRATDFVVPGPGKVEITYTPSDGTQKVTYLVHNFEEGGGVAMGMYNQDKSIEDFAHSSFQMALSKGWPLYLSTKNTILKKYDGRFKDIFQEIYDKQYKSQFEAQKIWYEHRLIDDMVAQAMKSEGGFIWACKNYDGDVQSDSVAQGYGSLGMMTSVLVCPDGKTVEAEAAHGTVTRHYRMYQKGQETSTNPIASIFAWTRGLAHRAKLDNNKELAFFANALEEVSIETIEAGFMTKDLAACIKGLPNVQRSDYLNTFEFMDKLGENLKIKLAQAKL

The first assay concerns the target IDH1 R132H (Homo sapiens (Human), UniProt O75874, R132H). Kind of assay: Assays for IDH1 R132H Inhibitors (NADPH/aKG, resazurin detection). In kind it is biochemical. Particulars: IDH1 R132H enzyme, Table 2; read-out: IDHR132H Activity. The method, then: Assays were conducted in a volume of […] assay buffer (150 mM NaCl, 10 mM MgCl2, 20 mM Tris pH 7.5, 0.03% bovine serum albumin) as follows in a standard 384-well plate: To 25 ul of substrate mix (8 uM NADPH, 2 mM aKG), 1 μl of test compound was added in DMSO. […] The reaction was incubated for 50 minutes at room temperature, then 25 μl of detection mix (30 μM resazurin, […]) was added and the mixture further incubated for 5 minutes at room temperature.
For `CCCOC(=O)N1CCN(c2nc(C(C)C)c3c(c2C#N)CC(C)(C)OC3)CC1C(=O)OCC` (centres unmarked) [Compound 364, 2-ethyl 1-propyl 4-(5-cyano-8-isopropyl-3,3-dimethyl-3,4-dihydro-1H-pyrano[3,4-c]pyridin-6-yl)piperazine-1,2-dicarboxylate], the IC50 was in the range of 1000 to 10000 nM.

Take `CC(C)c1nc(N2CCN(C(=O)c3ccoc3)C(C)C2)c(C#N)c2c1COC(C)(C)C2` (centres unmarked) [Compound 138, 6-(4-(furan-3-carbonyl)-3-methylpiperazin-1-yl)-8-isopropyl-3,3-dimethyl-3,4-dihydro-1H-pyrano[3,4-c]pyridine-5-carbonitrile]: the IC50 was in the range of 1000 to 10000 nM.

Regarding `C[C@H]1CN(C(=O)c2ccco2)CCN1c1nc(C2CCCCC2)c2c(c1C#N)CCOC2` [Compound 201, (S)-8-cyclohexyl-6-(4-(furan-2-carbonyl)-2-methylpiperazin-1-yl)-3,4-dihydro-1H-pyrano[3,4-c]pyridine-5-carbonitrile], the IC50 is 1000 to 10000 nM.

As to `CC(C)[C@@H]1CN(c2nc(C3CC3)c3c(c2C#N)CC(C)(C)OC3)CCN1C(=O)COc1cccnc1` [Compound 399, (R)-8-cyclopropyl-6-(3-isopropyl-4-(2-(pyridin-3-yloxy)acetyl)piperazin-1-yl)-3,3-dimethyl-3,4-dihydro-1H-pyrano[3,4-c]pyridine-5-carbonitrile], the IC50 lay within 1000 to 10000 nM.

Turning to `CC(C)c1nc(N2CCN(C(=O)NC3CCCCC3)CC2)c(C#N)c2c1COCC2` [Compound 107, 4-(5-cyano-8-isopropyl-3,4-dihydro-1H-pyrano[3,4-c]pyridin-6-yl)-N-cyclohexylpiperazine-1-carboxamide], the IC50 lay in the range of 1000 to 10000 nM.

Regarding `CC(C)c1nc(N2CCN(C(=O)c3ccco3)[C@H](C)C2)c(C#N)c2c1COCC2` [Compound 139, (R)-6-(4-(furan-2-carbonyl)-3-methylpiperazin-1-yl)-8-isopropyl-3,4-dihydro-1H-pyrano[3,4-c]pyridine-5-carbonitrile], the IC50 was 1000 to 10000 nM.

Turning to `COc1cccc(CC(=O)N2CCN(c3nc(C(C)C)c4c(c3C#N)CC(C)(C)OC4)C[C@H]2C(C)C)c1` [Compound 233, (R)-8-isopropyl-6-(3-isopropyl-4-(2-(3-methoxyphenyl)acetyl)piperazin-1-yl)-3,3-dimethyl-3,4-dihydro-1H-pyrano[3,4-c]pyridine-5-carbonitrile], the IC50 was 1000 to 10000 nM.

For `C=CCNC(=O)N1CCN(c2nc(C3CCCCC3)c3c(c2C#N)CCOC3)C[C@H]1C` [Compound 334, (R)—N-allyl-4-(5-cyano-8-cyclohexyl-3,4-dihydro-1H-pyrano[3,4-c]pyridin-6-yl)-2-methylpiperazine-1-carboxamide], the IC50 fell in the range of 1000 to 10000 nM.

In the case of `CC(C)[C@@H]1CN(c2nc(C3CC3)c3c(c2C#N)CC(C)(C)OC3)CCN1C(=O)Cn1ccnc1` [Compound 374, (R)-6-(4-(2-(1H-imidazol-1-yl)acetyl)-3-isopropylpiperazin-1-yl)-8-cyclopropyl-3,3-dimethyl-3,4-dihydro-1H-pyrano[3,4-c]pyridine-5-carbonitrile], the IC50 is 1000 to 10000 nM.

Consider `CC(C)c1nc(N2CCN(C(=O)Cc3ccccn3)[C@H](C(C)C)C2)c(C#N)c2c1COC(C)(C)C2` [Compound 214, (R)-8-isopropyl-6-(3-isopropyl-4-(2-(pyridin-2-yl)acetyl)piperazin-1-yl)-3,3-dimethyl-3,4-dihydro-1H-pyrano[3,4-c]pyridine-5-carbonitrile], for which the IC50 lay in the range of 500 to 1000 nM.

On to `CC1CN(c2nc(C3CC3)c3c(c2C#N)CC(C)(C)OC3)CCN1C(=O)c1ccco1` (centres unmarked) [Compound 135, 8-cyclopropyl-6-(4-(furan-2-carbonyl)-3-methylpiperazin-1-yl)-3,3-dimethyl-3,4-dihydro-1H-pyrano[3,4-c]pyridine-5-carbonitrile], for which the IC50 was in the range of 1000 to 10000 nM.

For `COCCC(=O)N1CCN(c2nc(C3CC3)c3c(c2C#N)CC(C)(C)OC3)C[C@H]1C(C)C` [Compound 270, (R)-8-cyclopropyl-6-(3-isopropyl-4-(3-methoxypropanoyl)piperazin-1-yl)-3,3-dimethyl-3,4-dihydro-1H-pyrano[3,4-c]pyridine-5-carbonitrile], the IC50 is below 500 nM.

In the case of `CC(C)[C@@H]1CN(c2nc(C3CC3)c3c(c2C#N)CC(C)(C)OC3)CCN1C(=O)Cn1cncn1` [Compound 324, (R)-6-(4-(2-(1H-1,2,4-triazol-1-yl)acetyl)-3-isopropylpiperazin-1-yl)-8-cyclopropyl-3,3-dimethyl-3,4-dihydro-1H-pyrano[3,4-c]pyridine-5-carbonitrile], the IC50 lay in the range of 1000 to 10000 nM.

Take `COCCC(=O)N1C[C@H](C)N(c2nc(C3CC3)c3c(c2C#N)CC(C)(C)OC3)C[C@H]1C` [Compound 310, 8-cyclopropyl-6-((2S,5R)-4-(3-methoxypropanoyl)-2,5-dimethylpiperazin-1-yl)-3,3-dimethyl-3,4-dihydro-1H-pyrano[3,4-c]pyridine-5-carbonitrile]: the IC50 lay within 1000 to 10000 nM.

For the compound `Cc1occc1C(=O)N1CCN(c2nc(C3CC3)c3c(c2C#N)CC(C)(C)OC3)CC1(C)C` [Compound 321], the IC50 was 1000 to 10000 nM.

Turning to `CC(C)[C@@H]1CN(c2nc(C3CC3)c3c(c2C#N)CC(C)(C)OC3)CCN1C(=O)Cc1ccccc1F` [Compound 228], the IC50 was in the range of 1000 to 10000 nM.

For the compound `Cc1ccc(S(=O)(=O)N2CCN(c3nc(C4CC4)c4c(c3C#N)CC(C)(C)OC4)C[C@H]2C(C)C)cc1` [Compound 302, (R)-8-cyclopropyl-6-(3-isopropyl-4-tosylpiperazin-1-yl)-3,3-dimethyl-3,4-dihydro-1H-pyrano[3,4-c]pyridine-5-carbonitrile], the IC50 fell in the range of 1000 to 10000 nM.

As to `Cc1ccccc1NC(=O)N1CCN(c2nc(C3CCCCC3)c3c(c2C#N)CCOC3)C[C@H]1C` [Compound 279, (R)-4-(5-cyano-8-cyclohexyl-3,4-dihydro-1H-pyrano[3,4-c]pyridin-6-yl)-2-methyl-N-o-tolylpiperazine-1-carboxamide], the IC50 was in the range of 1000 to 10000 nM.

For `CC(C)[C@@H]1CN(c2nc(C3(C)CC3)c3c(c2C#N)CC(C)(C)OC3)CCN1C(=O)c1ccoc1` [Compound 386], the IC50 was 1000 to 10000 nM.

As for `CSCCC(=O)N1CCN(c2nc(C(C)C)c3c(c2C#N)CC(C)(C)OC3)C[C@H]1C` [Compound 267, (R)-8-isopropyl-3,3-dimethyl-6-(3-methyl-4-(3-(methylthio)propanoyl)piperazin-1-yl)-3,4-dihydro-1H-pyrano[3,4-c]pyridine-5-carbonitrile], the IC50 was 500 to 1000 nM.

For the compound `N#Cc1c(N2CCN(C(=O)c3c[nH]c4ccccc34)CC2)nc(C2CCCCC2)c2c1CCOC2` [Compound 118, 6-(4-(1H-indole-3-carbonyl)piperazin-1-yl)-8-cyclohexyl-3,4-dihydro-1H-pyrano[3,4-c]pyridine-5-carbonitrile], the IC50 was in the range of 1000 to 10000 nM.

For the compound `C[C@@H]1CN(c2nc(C3CCCCC3)c3c(c2C#N)CCOC3)CCN1C(=O)Cc1ccccn1` [Compound 238, (R)-8-cyclohexyl-6-(3-methyl-4-(2-(pyridin-2-yl)acetyl)piperazin-1-yl)-3,4-dihydro-1H-pyrano[3,4-c]pyridine-5-carbonitrile], the IC50 was in the range of 1000 to 10000 nM.

The assay is the same for the next values; noted with them: IDH1 R132H enzyme, Table 3; read-out: R132H IC50.
Take `CC(=O)N1CCc2c(C#N)c(N3CCN(C(=O)C4CC4)[C@H](C4CC4)C3)nc(C3CC3)c2C1` [Compound 480, (R)-7-acetyl-3-(4-(cyclopropanecarbonyl)-3-cyclopropylpiperazin-1-yl)-1-cyclopropyl-5,6,7,8-tetrahydro-2,7-naphthyridine-4-carbonitrile]: the IC50 fell in the range of 500 to 1000 nM.
